“Also recorded” adds a separate entry of the source.
Columns and labels:
[1] = tested on: activated rat hepatic stellate cells; details: 5-10 μM
Experimental: The isolation of the rat hepatic stellate cells: The liver of an adult male Sprague-Dawley rats (500-600 g) were excised out after perfusion with pronase and collagenase. The liver tissue was homogenized and centrifuged. […] The cells were cultured in DMEM (Dulbecco Meliorated Eagle Medium) with 20% FBS inside culture plates at a cell density of 1.5×10^5 cells/cm^2. After two days incubation, the culture medium was changed and the cell debris was washed and removed.
The culture condition of rat hepatic stellate cells: The rat hepatic stellate cells were cultured in DMEM containing 20% fetal bovine serum (FBS), penicillin (100 U/ml) and streptomycin (100 ug/ml) at 37° C. in 5% CO2. The culture medium was changed for every fourth day.
The inhibitory effect of 2-(4-morpholinoaniline)-6-cyclohexyl aminopurine on activated rat hepatic stellate cells: The cells were treated with 5-10 μM of 2-(4-morpholinoaniline)-6-cyclohexyl aminopurine for 24 hours. The treated cells were then collected for Microarrays analysis. The treated cells were also processed for immunofluorescence staining and RT-PCR quantification.
The western blot analysis: The cells are disrupted in 200 μl lysis buffer (50 mM NaCl, 20 mM Tris (trihydroxymethyl aminomethane) pH 7.6, 1% Nonidet P-40, 1× protease inhibitor compounds) for 1 hour at 4° C. After incubation, the lysate was centrifuged at 16,000×g for 10 mins. The supernatant was transferred to a new tube and a protein quantification kit was used to quantify the concentration of proteins in each samples. 25 μg of total protein from each sample was loaded into the 10% SDS PAGE gel for analysis. Collagen-I, MMP-2, MMP-3, TIMP-2 and TIMP-3 mouse monoclonal antibodies (Santa Cruz Lab) were used to analyze the samples. Beta-actin and beta-tubulin monoclonal antibodies (1:1000 diluted) were used as internal control and normalization.

[2] = tested on: CCl4-induced liver fibrosis; details: Sprague-Dawley rats, CCl4 i.p. 6 weeks, then 50 or 100 μg/kg i.p. twice a week for two or four weeks
Experimental: Twenty-four adult male Sprague-Dawley rats (500-600 g) were divided into 4 groups (n=6), the first group (control) was injected with carbon tetrachloride (CCl4) intraperitonally (i.p.) twice per week for 6 weeks to induce liver fibrosis. […] At the end of the experimentation, the different groups of rats were sacrificed and samples of the liver were collected and fixed in 4% buffered formalin for 24 hours. Paraffin embedded samples were sectioned for histology and immunohistochemistry. Liver samples were also collected and stored in −20° C. for Western Blot Analysis and RT-PCR quantification.

What does the source list for `c1nc2c(NC3CCCCC3)nc(Nc3ccc(N4CCOCC4)cc3)nc2[nH]1` [2-(4-morpholinoaniline)-6-cyclohexyl aminopurine]?
Expression and synthesis of matrix metalloproteinases-2 (MMP-2) by activated hepatic stellate cells ([1]; treatment for 3 days (FIG. 3B)): inhibited them from expressing and synthesizing and MMP-2; also recorded: suppressed activated hepatic stellate cells from expressing and synthesizing MMP-2 and MMP-3; Expression and synthesis of matrix metalloproteinases-3 (MMP-3) by activated hepatic stellate cells ([1]; treatment for 3 days (FIG. 3D)): inhibited them from expressing and synthesizing MMP-3; also recorded: suppressed activated hepatic stellate cells from expressing and synthesizing MMP-2 and MMP-3; Expression and synthesis of tissue inhibitor of metalloproteinase-2 (TIMP-2) by activated hepatic stellate cells ([1]; treatment for 3 days (FIG. 4B)): could inhibit activated hepatic stellate cells from expressing and synthesizing TIMP-2; also recorded: could inhibit the cells from producing TIMP-2 and TIMP-3; Expression and synthesis of TIMP-3 by activated hepatic stellate cells ([1]; treatment for 3 days (FIG. 4D)): inhibited them from expressing and synthesizing TIMP-3; also recorded: could inhibit the cells from producing TIMP-2 and TIMP-3; Collagen synthesis in liver (histology, FIG. 5) [2]: effective in inhibiting collagen synthesis
